Assay results as given in ChEMBL document CHEMBL4251634, “Synthesis and antimicrobial activity of pyrimidinyl 1,3,4-oxadiazoles, 1,3,4-thiadiazoles and 1,2,4-triazoles” (2018).

How the values were obtained:
Assay type in all cases: functional
Bacillus subtilis [1] = assay: Antibacterial activity against Bacillus subtilis assessed as diameter of inhibition zone at 100 ug/well after 24 hrs by agar well diffusion method; conditions: read-out: DIZ
Klebsiella pneumoniae [2] = assay: Antibacterial activity against Klebsiella pneumoniae assessed as diameter of inhibition zone at 12.5 ug/well after 24 hrs by agar well diffusion method; conditions: read-out: DIZ
Pseudomonas aeruginosa [3] = assay: Antibacterial activity against Pseudomonas aeruginosa assessed as diameter of inhibition zone at 25 ug/well after 24 hrs by agar well diffusion method; conditions: read-out: DIZ
Staphylococcus aureus [4] = assay: Antibacterial activity against Staphylococcus aureus assessed as diameter of inhibition zone at 25 ug/well after 24 hrs by agar well diffusion method; conditions: read-out: DIZ
Klebsiella pneumoniae [5] = assay: Antibacterial activity against Klebsiella pneumoniae assessed as diameter of inhibition zone at 50 ug/well after 24 hrs by agar well diffusion method; conditions: read-out: DIZ
Penicillium chrysogenum [6] = assay: Antifungal activity against Penicillium chrysogenum assessed as diameter of inhibition zone at 100 ug/well after 48 hrs by agar well diffusion method; conditions: read-out: DIZ
Aspergillus niger [7] = assay: Antifungal activity against Aspergillus niger after 48 hrs by turbidity-based broth dilution assay
Aspergillus niger [8] = assay: Antifungal activity against Aspergillus niger assessed as diameter of inhibition zone at 100 ug/well after 48 hrs by agar well diffusion method; conditions: read-out: DIZ
Aspergillus niger [9] = assay: Fungicidal activity against Aspergillus niger incubated for 48 hrs followed by regrowth on PDA plates for 48 hrs
Bacillus subtilis [10] = assay: Bactericidal activity against Bacillus subtilis incubated for 24 hrs followed by regrowth on sterile nutrient broth for 24 hrs; design: unit not given here
Pseudomonas aeruginosa [11] = assay: Antibacterial activity against Pseudomonas aeruginosa after 24 hrs by turbidity-based broth dilution assay
Staphylococcus aureus [12] = assay: Bactericidal activity against Staphylococcus aureus incubated for 24 hrs followed by regrowth on sterile nutrient broth for 24 hrs
Penicillium chrysogenum [13] = assay: Antifungal activity against Penicillium chrysogenum assessed as diameter of inhibition zone at 50 ug/well after 48 hrs by agar well diffusion method; conditions: read-out: DIZ
Bacillus subtilis [14] = assay: Antibacterial activity against Bacillus subtilis assessed as diameter of inhibition zone at 25 ug/well after 24 hrs by agar well diffusion method; conditions: read-out: DIZ
Aspergillus niger [15] = assay: Antifungal activity against Aspergillus niger assessed as diameter of inhibition zone at 50 ug/well after 48 hrs by agar well diffusion method; conditions: read-out: DIZ
Bacillus subtilis [16] = assay: Antibacterial activity against Bacillus subtilis assessed as diameter of inhibition zone at 12.5 ug/well after 24 hrs by agar well diffusion method; conditions: read-out: DIZ
Staphylococcus aureus [17] = assay: Antibacterial activity against Staphylococcus aureus after 24 hrs by turbidity-based broth dilution assay
Klebsiella pneumoniae [18] = assay: Antibacterial activity against Klebsiella pneumoniae assessed as diameter of inhibition zone at 25 ug/well after 24 hrs by agar well diffusion method; conditions: read-out: DIZ
Staphylococcus aureus [19] = assay: Antibacterial activity against Staphylococcus aureus assessed as diameter of inhibition zone at 12.5 ug/well after 24 hrs by agar well diffusion method; conditions: read-out: DIZ
Penicillium chrysogenum [20] = assay: Fungicidal activity against Penicillium chrysogenum incubated for 48 hrs followed by regrowth on PDA plates for 48 hrs
Pseudomonas aeruginosa [21] = assay: Antibacterial activity against Pseudomonas aeruginosa assessed as diameter of inhibition zone at 100 ug/well after 24 hrs by agar well diffusion method; conditions: read-out: DIZ
Penicillium chrysogenum [22] = assay: Antifungal activity against Penicillium chrysogenum assessed as diameter of inhibition zone at 25 ug/well after 48 hrs by agar well diffusion method; conditions: read-out: DIZ
Klebsiella pneumoniae [23] = assay: Antibacterial activity against Klebsiella pneumoniae after 24 hrs by turbidity-based broth dilution assay
Pseudomonas aeruginosa [24] = assay: Bactericidal activity against Pseudomonas aeruginosa incubated for 24 hrs followed by regrowth on sterile nutrient broth for 24 hrs
Bacillus subtilis [25] = assay: Antibacterial activity against Bacillus subtilis assessed as diameter of inhibition zone at 50 ug/well after 24 hrs by agar well diffusion method; conditions: read-out: DIZ
Staphylococcus aureus [26] = assay: Antibacterial activity against Staphylococcus aureus assessed as diameter of inhibition zone at 50 ug/well after 24 hrs by agar well diffusion method; conditions: read-out: DIZ
Aspergillus niger [27] = assay: Antifungal activity against Aspergillus niger assessed as diameter of inhibition zone at 12.5 ug/well after 48 hrs by agar well diffusion method; conditions: read-out: DIZ
Penicillium chrysogenum [28] = assay: Antifungal activity against Penicillium chrysogenum after 48 hrs by turbidity-based broth dilution assay
Pseudomonas aeruginosa [29] = assay: Antibacterial activity against Pseudomonas aeruginosa assessed as diameter of inhibition zone at 50 ug/well after 24 hrs by agar well diffusion method; conditions: read-out: DIZ
Penicillium chrysogenum [30] = assay: Antifungal activity against Penicillium chrysogenum assessed as diameter of inhibition zone at 12.5 ug/well after 48 hrs by agar well diffusion method; conditions: read-out: DIZ
Klebsiella pneumoniae [31] = assay: Antibacterial activity against Klebsiella pneumoniae assessed as diameter of inhibition zone at 100 ug/well after 24 hrs by agar well diffusion method; conditions: read-out: DIZ
Pseudomonas aeruginosa [32] = assay: Ratio of MBC to MIC for Pseudomonas aeruginosa
Pseudomonas aeruginosa [33] = assay: Antibacterial activity against Pseudomonas aeruginosa assessed as diameter of inhibition zone at 12.5 ug/well after 24 hrs by agar well diffusion method; conditions: read-out: DIZ
Aspergillus niger [34] = assay: Antifungal activity against Aspergillus niger assessed as diameter of inhibition zone at 25 ug/well after 48 hrs by agar well diffusion method; conditions: read-out: DIZ
Staphylococcus aureus [35] = assay: Antibacterial activity against Staphylococcus aureus assessed as diameter of inhibition zone at 100 ug/well after 24 hrs by agar well diffusion method; conditions: read-out: DIZ
Klebsiella pneumoniae [36] = assay: Bactericidal activity against Klebsiella pneumoniae incubated for 24 hrs followed by regrowth on sterile nutrient broth for 24 hrs
Aspergillus niger [37] = assay: Ratio of MFC to MIC for Aspergillus niger

Row | MIC (Aspergillus niger [7]) [µg] | MIC (Pseudomonas aeruginosa [11]) [µg] | MIC (Staphylococcus aureus [17]) [µg] | SMILES | zone of inhibition at 100 µg/disc (Bacillus subtilis [1]) [mm] | zone of inhibition at 12.5 µg/disc (Klebsiella pneumoniae [2]) [mm] | zone of inhibition at 25 µg/disc (Pseudomonas aeruginosa [3]) [mm] | zone of inhibition at 25 µg/disc (Staphylococcus aureus [4]) [mm] | zone of inhibition at 50 µg/disc (Klebsiella pneumoniae [5]) [mm] | zone of inhibition at 100 µg/disc (Penicillium chrysogenum [6]) [mm] | zone of inhibition at 100 µg/disc (Aspergillus niger [8]) [mm] | MFC (Aspergillus niger [9]) [µg] | MBC (Bacillus subtilis [10]) | MBC (Staphylococcus aureus [12]) [µg] | zone of inhibition at 50 µg/disc (Penicillium chrysogenum [13]) [mm] | zone of inhibition at 25 µg/disc (Bacillus subtilis [14]) [mm] | zone of inhibition at 50 µg/disc (Aspergillus niger [15]) [mm] | zone of inhibition at 12.5 µg/disc (Bacillus subtilis [16]) [mm] | zone of inhibition at 25 µg/disc (Klebsiella pneumoniae [18]) [mm] | zone of inhibition at 12.5 µg/disc (Staphylococcus aureus [19]) [mm] | MFC (Penicillium chrysogenum [20]) [µg] | further results
1 | 12.5 | 6.25 | 50 | Cc1cc(SCc2nnc(-c3ccc([N+](=O)[O-])cc3)s2)nc(SCc2nnc(-c3ccc([N+](=O)[O-])cc3)s2)n1 | 31 | 31 | 31 | 18 | 35 | 26 | 35 | 50 | 100 | 200 | 24 | 24 | 32 | 22 | 33 | 16 | 200 | zone of inhibition at 100 µg/disc (Pseudomonas aeruginosa [21]): 35 mm; zone of inhibition at 25 µg/disc (Penicillium chrysogenum [22]): 22 mm; MIC (Klebsiella pneumoniae [23]): 12.5 µg; MBC (Pseudomonas aeruginosa [24]): 12.5 µg; zone of inhibition at 50 µg/disc (Bacillus subtilis [25]): 27 mm; zone of inhibition at 50 µg/disc (Staphylococcus aureus [26]): 20 mm; zone of inhibition at 12.5 µg/disc (Aspergillus niger [27]): 27 mm; MIC (Penicillium chrysogenum [28]): 50 µg; zone of inhibition at 50 µg/disc (Pseudomonas aeruginosa [29]): 33 mm; zone of inhibition at 12.5 µg/disc (Penicillium chrysogenum [30]): 20 mm; zone of inhibition at 100 µg/disc (Klebsiella pneumoniae [31]): 38 mm; Ratio (Pseudomonas aeruginosa [32]): 2; zone of inhibition at 12.5 µg/disc (Pseudomonas aeruginosa [33]): 28 mm; zone of inhibition at 25 µg/disc (Aspergillus niger [34]): 29 mm; zone of inhibition at 100 µg/disc (Staphylococcus aureus [35]): 23 mm; MBC (Klebsiella pneumoniae [36]): 50 µg
2 | 6.25 | 25 | 100 | Cc1cc(SCc2nnc(-c3ccc(Cl)cc3)n2N)nc(SCc2nnc(-c3ccc(Cl)cc3)n2N)n1 | 24 | 22 | 21 | 11 | 26 | 29 | 38 | 12.5 | 200 | >200 | 25 | 18 | 35 | 16 | 24 | 10 | 100 | Ratio (Aspergillus niger [37]): 2; zone of inhibition at 100 µg/disc (Pseudomonas aeruginosa [21]): 27 mm; zone of inhibition at 25 µg/disc (Penicillium chrysogenum [22]): 23 mm; MIC (Klebsiella pneumoniae [23]): 25 µg; MBC (Pseudomonas aeruginosa [24]): 100 µg; zone of inhibition at 50 µg/disc (Bacillus subtilis [25]): 20 mm; zone of inhibition at 50 µg/disc (Staphylococcus aureus [26]): 13 mm; zone of inhibition at 12.5 µg/disc (Aspergillus niger [27]): 32 mm; MIC (Penicillium chrysogenum [28]): 25 µg; zone of inhibition at 50 µg/disc (Pseudomonas aeruginosa [29]): 24 mm; zone of inhibition at 12.5 µg/disc (Penicillium chrysogenum [30]): 21 mm; zone of inhibition at 100 µg/disc (Klebsiella pneumoniae [31]): 29 mm; zone of inhibition at 12.5 µg/disc (Pseudomonas aeruginosa [33]): 18 mm; zone of inhibition at 25 µg/disc (Aspergillus niger [34]): 33 mm; zone of inhibition at 100 µg/disc (Staphylococcus aureus [35]): 15 mm; MBC (Klebsiella pneumoniae [36]): 100 µg
3 | 6.25 | 12.5 | 100 | Cc1cc(SCc2nnc(-c3ccc([N+](=O)[O-])cc3)n2N)nc(SCc2nnc(-c3ccc([N+](=O)[O-])cc3)n2N)n1 | 26 | 25 | 26 | 15 | 29 | 31 | 40 | 12.5 | 200 | >200 | 27 | 20 | 37 | 18 | 27 | 13 | 100 | Ratio (Aspergillus niger [37]): 2; zone of inhibition at 100 µg/disc (Pseudomonas aeruginosa [21]): 31 mm; zone of inhibition at 25 µg/disc (Penicillium chrysogenum [22]): 25 mm; MIC (Klebsiella pneumoniae [23]): 25 µg; MBC (Pseudomonas aeruginosa [24]): 50 µg; zone of inhibition at 50 µg/disc (Bacillus subtilis [25]): 22 mm; zone of inhibition at 50 µg/disc (Staphylococcus aureus [26]): 17 mm; zone of inhibition at 12.5 µg/disc (Aspergillus niger [27]): 33 mm; MIC (Penicillium chrysogenum [28]): 25 µg; zone of inhibition at 50 µg/disc (Pseudomonas aeruginosa [29]): 28 mm; zone of inhibition at 12.5 µg/disc (Penicillium chrysogenum [30]): 23 mm; zone of inhibition at 100 µg/disc (Klebsiella pneumoniae [31]): 32 mm; zone of inhibition at 12.5 µg/disc (Pseudomonas aeruginosa [33]): 23 mm; zone of inhibition at 25 µg/disc (Aspergillus niger [34]): 35 mm; zone of inhibition at 100 µg/disc (Staphylococcus aureus [35]): 19 mm; MBC (Klebsiella pneumoniae [36]): 100 µg
